From patent US20070259865A1, “Agent for Promoting the Recovery from Dysfunction After the Onset of Central Neurological Disease” (Astellas Pharma Inc., priority 2004, published 2007)

Legend:
[1] = test system: cerebral infarction rat model; assay: Beam-walking test, walking function in cerebral infarction rat model; assay type: in vivo; conditions: vs. control group; male spontaneous hypertension rats after MCA occlusion; Compound A 5 and 10 mg/kg; D-amphetamine 0.75 and 1.5 mg/kg intraperitoneally; FIGS. 1-3 (a)
From the text: (§1) Blood Flow Metab. 8, 474-485, 1988.

[2] = test system: spontaneous hypertension rats; assay: Effect on the circulatory system (heart rate); assay type: in vivo, rat
Method: After a cannula was inserted into the common carotid artery, heart rates were monitored. […] For the control group, physiological saline was administered intraperitoneally and the measurement was similarly conducted. Statistical analysis was conducted by one-way repeated-measures analysis of variance.

[3] = test system: cerebral infarction rat model; assay: Foot-fault test, walking function in cerebral infarction rat model; assay type: in vivo; conditions: vs. control group; forepaw on the disordered side; Compound A 5 and 10 mg/kg; D-amphetamine 0.75 and 1.5 mg/kg intraperitoneally; FIGS. 1-3 (b)
From the text: as §1

[4] = test system: cerebral infarction rat model; assay: Staircase test, forepaw function in cerebral infarction rat model; conditions: vs. control group, Compound A 5 mg/kg orally five times per week, D-amphetamine 1.5 mg/kg intraperitoneally twice per week, to week 6; for forepaw dysfunction, number of displaced pellets in the staircase test: FIG. 4 (a); for forepaw dysfunction, number of eaten pellets in the staircase test: FIG. 4 (b)
[5] = test system: cerebral infarction rat model; conditions: D-amphetamine 0.75 and 1.5 mg/kg, FIG. 5

Structure (SMILES)	improvement effect on gait function in the beam-walking test (score) [1]	effect on heart rate ([2]; rat, in vivo)	improvement effect on gait function in the foot-fault test (% foot-faults) [3]	forepaw dysfunction, number of displaced pellets in the staircase test [4]	forepaw dysfunction, number of eaten pellets in the staircase test [4]	effect on the number of steps (locomotor activity, excitatory effect) [5]	effect on heart rate ([2]; recorded until 4 hours after administration, Compound A orally, D-amphetamine intraperitoneally, vs. basal value, FIG. 6)
Cl.Fc1ccc(OC[C@@H]2CNCCO2)c2c1CCC2 [Compound A, (S)-2-[[(7-Fluoro-4-indanyl)oxy]methyl]morpholine hydrochloride]	significant improvement effect	no effect on heart rate	significant improvement effect	significant improvement effect	significant improvement effect	–	–
C[C@H](N)Cc1ccccc1 [D-amphetamine]	–	–	–	the effect was not significant	the effect was not significant	remarkable increase in the number of steps	significant accentuation of heart rate
CNCCC(Oc1ccc(C(F)(F)F)cc1)c1ccccc1 (centres unmarked) [fluoxetine, Fluoxetine]	no evident improvement effect	–	no evident improvement effect	–	–	–	–
